The values that follow come from US20090246172A1, “COMPOSITIONS COMPRISING EPOTHILONES AND THEIR USE FOR THE TREATMENT OF CARCINOID SYNDROME” (priority 2001, published 2009).

In this test the test system is carcinoid syndrome and/or at least one neuroendocrine tumor. The experiment in a line: treatment of a human patient with epothilone B (Example 1). The test is classed as in vivo. The protocol: A human patient experiencing 3 loose bowel movements each day, frequent nausea and anorexia presented a plasma serotonin level of 361 ng/ml and an octreotide scan showing foci of abnormal activity in the pelvis, liver, upper chest and neck. They received 2.5 mg/m^2 of epothilone B weekly every 3 of 4 weeks.

SMILES strings stand for the structures.

Regarding `C/C(=C\c1csc(C)n1)[C@@H]1C[C@@H]2O[C@]2(C)CCC[C@H](C)[C@H](O)[C@@H](C)C(=O)C(C)(C)[C@@H](O)CC(=O)O1` [epothilone B], the octreotide scan entry reads like this: (2.5 mg/m^2 weekly every 3 of 4 weeks, after 6 doses plus further about two months) “no evidence of disease”; (2.5 mg/m^2 weekly every 3 of 4 weeks, after 6 doses, before treatment foci in pelvis, liver, upper chest and neck) “minimal focus of activity in the pelvis alone”. For the same compound, where the note is “conclusion drawn from the observations in Example 1 ('make it likely')”, the “tumor burden of the patient” value is “significantly decreased”. Also, the plasma serotonin level (patient, 2.5 mg/m^2 weekly every 3 of 4 weeks, 6 doses plus further about two months, level before treatment 361 ng/ml, within normal limits) is 62 ng/mL.
